According to US11878971B2, “Piperlongumine-based compound and immuno regulator comprising the same” (HUSCION CO., LTD., priority 2020, dated 2024):
Entries after “also recorded” stand apart in the source; their conditions may differ.

What was measured:
RIG1 = experiment: Reporter gene assay HEK-Lucia RIG-1; format: cell-based; conditions: HEK-Lucia RIG-1 cells, stimulant 3p-hpRNA; FIG. 12
Experimental: (§1) In the present test example, THP1-Lucia NF-κB, HEK-Lucia RIG-1, HEK-Blue-IL-4/IL-13, and HEK-Blue IL-10 cell lines were purchased from InVivoGen, and evaluated for inhibitory activity on immune cell signaling, and the analysis was performed according to the manufacturer's analysis method. Specifically, the four types of cell lines were treated with each of test substances, which are the piperlongumine-based compounds 1 to 19, and then treated with each of promoter stimulants (LPS, 3p-hpRNA, interleukin-4, and interleukin-10). The response was induced according to the guidelines, and then the activity inhibitory ability was analyzed.

STAT6 signaling = experiment: Reporter gene assay HEK-Blue-IL-4/IL-13; format: cell-based; conditions: HEK-Blue-IL-4/IL-13 cells, stimulant interleukin-4; FIG. 14
Experimental: as §1
STAT6 is a transcription factor that plays a role in modulating the expression of various cytokines, hormones, and growth factors by signals coming from the outside. IL-4/IL-13 and STAT6 are also important modulator of Th2.

IL-17a gene expression = experiment: T cell-dependent cytokine IL-17a gene expression inhibition, splenocytes ex vivo; conditions: Balb/c mouse splenocytes, CD3 monoclonal antibody stimulation
STAT3 signaling = experiment: Reporter gene assay HEK-Blue IL-10; format: cell-based; conditions: HEK-Blue IL-10 cells, stimulant interleukin-10; FIG. 13
Experimental: as §1

IFNγ expression = experiment: T cell-dependent cytokine IFNγ gene expression inhibition, splenocytes ex vivo; conditions: Balb/c mouse splenocytes, CD3 monoclonal antibody stimulation; FIG. 7
NF-κB signaling pathway = experiment: Reporter gene assay THP1-Lucia NF-κB; format: cell-based; conditions: THP1-Lucia NF-κB cells stimulated with LPS; FIG. 11
Experimental: as §1

IL-4 gene expression = experiment: T cell-dependent cytokine IL-4 gene expression inhibition, splenocytes ex vivo; conditions: Balb/c mouse splenocytes, CD3 monoclonal antibody stimulation; control cyclosporine (CsA); FIG. 8
IL-2 gene expression = experiment: T cell-dependent cytokine IL-2 gene expression inhibition, splenocytes ex vivo; conditions: Balb/c mouse splenocytes, CD3 monoclonal antibody stimulation; control cyclosporine (CsA); FIG. 6

Structure (SMILES)	RIG1 activity inhibitory effect (RIG1)	STAT6 activity inhibitory effect (STAT6 signaling)	IL-17a gene expression inhibitory activity (IL-17a gene expression; control cyclosporine (CSA), FIG. 10)	IL-17a gene expression inhibitory activity, fold higher compared with Compound 3 (IL-17a gene expression; relative to Compound 3)	IL-17a gene expression inhibitory activity, fold higher compared with Compound 9 (IL-17a gene expression; relative to Compound 9)	STAT3 activity inhibitory effect (STAT3 signaling)	inhibitory ability on Th1-derived IFNγ expression (IFNγ expression)	NF-κB activity inhibitory effect (NF-κB signaling pathway)	IL-4 gene expression inhibitory activity (IL-4 gene expression)	IL-2 gene expression inhibitory activity (IL-2 gene expression)
COC(=O)c1cc(/C=C/C(=O)N2CCC=CC2=O)ccc1OC [Compound 1, (E)-methyl-2-methoxy-5-(3-oxo-3-(2-oxo-5,6-dihydropyridin-1(2H)-yl)prop-1-en-1-yl)benzoate]	very high RIG1 activity inhibitory ability	very high STAT6 activity inhibitory ability	excellent IL-17a expression inhibitory activity compared with cyclosporine	at least 6 fold	at least 3 fold	very high STAT3 activity inhibitory ability	effectively inhibit	very high NF-κB activity inhibitory ability	IL-4 gene expression inhibitory activity at a significant level equal to or greater than that of cyclosporine; also recorded: effectively inhibit	IL-2 gene expression inhibitory activity at a significant level equal to or greater than that of cyclosporine; also recorded: effectively inhibit
COC(=O)c1cc(/C=C/C(=O)N2CCC=C(Cl)C2=O)ccc1OC [Compound 3, (E)-methyl-5-(3-(3-chloro-2-oxo-5,6-dihydropyridin-1(2H)-yl)-3-oxoprop-1-en-1-yl)-2-methoxybenzoate]	very high RIG1 activity inhibitory ability	very high STAT6 activity inhibitory ability	–	–	–	very high STAT3 activity inhibitory ability	effectively inhibit	very high NF-κB activity inhibitory ability	IL-4 gene expression inhibitory activity at a significant level equal to or greater than that of cyclosporine; also recorded: effectively inhibit	IL-2 gene expression inhibitory activity at a significant level equal to or greater than that of cyclosporine; also recorded: effectively inhibit
COC(=O)c1cc(/C=C/C(=O)N2CCC=C(Br)C2=O)ccc1OC [Compound 9, (E)-methyl-5-(3-(3-bromo-2-oxo-5,6-dihydropyridin-1(2H)-yl)-3-oxoprop-1-en-1-yl)-2-methoxybenzoate]	very high RIG1 activity inhibitory ability	–	–	–	–	very high STAT3 activity inhibitory ability	effectively inhibit	very high NF-κB activity inhibitory ability	IL-4 gene expression inhibitory activity at a significant level equal to or greater than that of cyclosporine; also recorded: effectively inhibit	IL-2 gene expression inhibitory activity at a significant level equal to or greater than that of cyclosporine; also recorded: effectively inhibit
COC(=O)c1cc(/C=C/C(=O)N2CCC=C(Br)C2=O)ccc1O [Compound 10, (E)-methyl-5-(3-(3-bromo-2-oxo-5,6-dihydropyridin-1(2H)-yl)-3-oxoprop-1-en-1-yl)-2-hydroxybenzoate]	very high RIG1 activity inhibitory ability	–	–	–	–	very high STAT3 activity inhibitory ability	–	–	–	–
COC(=O)c1cc(/C=C/C(=O)N2CCC=C(Br)C2=O)ccc1OC(C)=O [Compound 11, (E)-methyl-2-acetoxy-5-(3-(3-bromo-2-oxo-5,6-dihydropyridin-1(2H)-yl)-3-oxoprop-1-en-1-yl)benzoate]	–	–	–	–	–	–	–	–	IL-4 gene expression inhibitory activity at a significant level equal to or greater than that of cyclosporine	–
COC(=O)c1cc(/C=C/C(=O)N2CCC=C(Cl)C2=O)ccc1O [Compound 12, (E)-methyl-5-(3-(3-chloro-2-oxo-5,6-dihydropyridin-1(2H)-yl)-3-oxoprop-1-en-1-yl)-2-hydroxybenzoate]	–	very high STAT6 activity inhibitory ability	–	–	–	very high STAT3 activity inhibitory ability	–	–	–	–
COC(=O)c1cc(/C=C/C(=O)N2CCC=C(Cl)C2=O)ccc1OC(C)=O [Compound 13, (E)-methyl-2-acetoxy-5-(3-(3-chloro-2-oxo-5,6-dihydropyridin-1(2H)-yl)-3-oxoprop-1-en-1-yl)benzoate]	–	very high STAT6 activity inhibitory ability	–	–	–	very high STAT3 activity inhibitory ability	–	–	–	–
O=C(/C=C/c1cccc([N+](=O)[O-])c1)N1CCC=C(Cl)C1=O [Compound 16, (E)-3-chloro-1-(3-(3-nitrophenyl)acryloyl)-5,6-dihydropyridin-2(1H)-one]	–	very high STAT6 activity inhibitory ability	–	–	–	very high STAT3 activity inhibitory ability	–	–	–	–
